Bounds are passed on as bounds.

Assay [1] has as its system 3T3-L1 adipocytes. Kind of assay: 3H-thymidine incorporation assay, proliferation of 3T3-L1 adipocytes. The class given is cell-based. As to conditions: 3T3-L1 cells. The protocol: 3T3-L1 pre-adipocytes were purchased from American Type Culture Collection (ATCC; Manassas, VA, USA). The pre-adipocytes were maintained in Dulbecco's modified Eagle's medium (DMEM; Hyclone, South Logan, UT, USA), and supplemented with 10% newborn calf serum (Hyclone) and antibiotics (Hyclone) at 37° C. in 5% CO2. To induce adipocyte differentiation, the pre-adipocytes were plated at 24-well plates. After confluence, the medium was changed and 10 μg/ml insulin, 1 μM DEX and 0.5 mM IBMX was added. Two days later the media were changed to the basal medium supplemented with 10% FBS and 10 μg/ml insulin. The media were replaced every 2 days for a period of 8-14 days. To evaluate cell proliferation, ^3H-thymidine incorporation assay was used. The 3T3-L1 cells (5,000 cells/well) were incubated with 5 or 10 nM CF102 96-well plate for 48 hours. Each well was pulsed with […] ^3H-thymidine for the last 24 hours. Cells were harvested and the ^3H-thymidine uptake was determined in an LKB liquid scintillation counter (LKB, Piscataway, NJ, USA).
For orientation: Incorporation of labelled thymidine or its analogues reports DNA synthesis.

The subject of assay [2] is 3T3-L1 adipocytes. Kind of assay: Oil-Red-O staining, accumulation of lipid droplets in 3T3-L1 adipocytes. In kind it is cell-based. Conditions: 5 nM CF102, 48 h, p=0.01. How it is done: Pre-adipocytes were incubated in a differentiated medium (DMEM high glucose+10% FBS) containing 10 μg/ml insulin, 1 μM DEX and 0.5 mM IBMX and treated with 5 nM CF102 for 48 h to evaluate its potential anti-adipogenic effect. The accumulation of lipid droplets was evaluated by staining with Oil-Red-O. Briefly, cells were washed with PBS, incubated with 3.7% HCHO for 1 hr and then, incubated with Oil-Red-O solution for 45 min. Cells were washed very well to remove the excess of Oil-Red-O, visualized and photographed under an Olympus microscope with a Leica camera. For the quantification of lipid accumulation, cells were dissolved in isopropanol and the optical density was read on a Dynatech Corp. Microelisa reader (Chantilly, VA) at 595 nm. The degree accumulation of lipid droplets was proportional to the optical density.

A short description of assay [3]: Body weight in diet-induced obesity mouse model (HFD vs. regular diet). The class given is in vivo, C57BL/6J mice. Conditions: HFD 12 weeks, then 100 μg/Kg daily oral for 4 weeks. The source says: Because complications from obesity such as diabetes and cardiovascular disease usually require decades, surrogate animal models are important for studying the molecular aspects of obesity and its pathophysiological effects. One of these models that are gaining increasing attention is the diet-induced obesity model in mouse. The present protocol is designed to evaluate effects of CF102 in an in vivo mouse model of Diet-Induced obesity. The mice utilized are C57BL/6J males, 4-6 weeks old (The Jackson Laboratory, stock 000664). 60 kcal % fat diet (Research Diets, D12492i) Group I-II: Naïve animals (n=20) were fed with a regular diet, served as a control group and were defined as ‘Lean Diet’ After 12 weeks, mice were divided into 2 groups (n=10 per group), the first was treated with a daily oral administration of CF102 (Can-Fite BioPharma, Cat #A14402-10; 100 μg/Kg) for 4 weeks and the second with vehicle only. Group III-IV—Naïve mice (n=20) were fed with HFD for 12 weeks. After 12 weeks, mice were divided into 2 groups (n=10 per group), the first was treated with daily oral administration of CF102 (Can-Fite BioPharma, Cat #A14402-10; 100 μg/Kg) for 4 weeks and the second with vehicle only.

Assay [4] in a line: Body weight in STZ-induced diabetic rat model. In kind it is in vivo, Sprague Dawley rats. As to conditions: STZ diabetic rats, 100 μg/kg orally twice daily for five days. The protocol: Diabetes is one of the complications of obesity. Therefore, the effect of an A3AR ligand on body weight in a diabetic model was also evaluated.
Sprague Dawley male rats (8-10 week old) were administered IP with Streptozotocin (STZ) at a dose level of 60 mg/kg in citrate buffer to create a diabetic model. Only animals with blood glucose level higher than 250 mg/dL were included in the study. CF602, an allosteric A3AR ligand was administered orally twice daily for five days at a dose of 100 μg/kg. Body weight was monitored after 5 days.

In the case of `CNC(=O)[C@H]1O[C@@H](n2cnc3c(NCc4cccc(I)c4)nc(Cl)nc32)[C@H](O)[C@@H]1O` [CF102, 2-chloro-N^6-(3-iodobenzyl)-adenosine-5′-N-methyluronamide], the “reduction of adipocyte proliferation compared to the control measurement” value in assay [1] (5 nM CF102, 48 hours) is recorded as “more than 20%”; in assay [1] (10 nM CF102, 48 hours), greater than 40%. The “lipid accumulation (OD value at 595 nm) vs. vehicle treated control” value in assay [2] is listed as “inhibition in lipid accumulation”. The “weight loss, mice under HFD” value in assay [3] is “significant (p<0.001) weight loss effect”.

As to `Clc1ccc(Nc2nc3ccccc3c3[nH]c(C4CCCCC4)nc23)cc1Cl` [CF602, N-(3,4-Dichloro-phenyl)-2-cyclohexyl-1H-imidazo[4,5-c]quinolin-4-amine], the “weight change from baseline (body weight)” value in assay [4] is “significant (p<0.03) decrease in body weight”.
